Here are results for one molecule from ChEMBL document CHEMBL4507319 (2021).

Assay [1] concerns the target Calcium/calmodulin-dependent protein kinase type 1G (Homo sapiens) (UniProt Q96NX5). The assay can be described thus: CaMKIgamma(h) Eurofins kinase panel. The following applies: Compound concentration 1.0 uM.
The target of assay [2] is Cyclin-dependent kinase 5/CDK5 activator 1 (Homo sapiens) (UniProt Q00535+Q15078). The assay can be described thus: CDK5/p35(h) Eurofins kinase panel. The following applies: Compound concentration 1.0 uM. It is filed as protein-complex assay.
Chain of Cyclin-dependent kinase 5/CDK5 activator 1 (Homo sapiens) (Q00535 whole entry): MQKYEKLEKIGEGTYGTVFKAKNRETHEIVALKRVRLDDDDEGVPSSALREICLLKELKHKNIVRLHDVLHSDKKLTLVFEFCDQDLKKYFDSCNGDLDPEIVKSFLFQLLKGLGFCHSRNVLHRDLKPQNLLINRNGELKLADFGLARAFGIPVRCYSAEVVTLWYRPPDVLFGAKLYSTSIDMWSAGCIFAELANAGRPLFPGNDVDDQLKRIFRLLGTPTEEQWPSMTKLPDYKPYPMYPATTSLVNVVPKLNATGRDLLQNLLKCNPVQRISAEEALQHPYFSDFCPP
Chain of Cyclin-dependent kinase 5/CDK5 activator 1 (Homo sapiens) (Q15078 99-307 partner limits assumed): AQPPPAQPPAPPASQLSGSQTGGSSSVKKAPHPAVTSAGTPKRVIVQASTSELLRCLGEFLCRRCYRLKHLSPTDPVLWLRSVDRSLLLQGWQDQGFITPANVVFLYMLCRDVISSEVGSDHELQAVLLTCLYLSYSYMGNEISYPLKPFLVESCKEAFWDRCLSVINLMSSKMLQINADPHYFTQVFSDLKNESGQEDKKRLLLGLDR
In assay [3] the target is Casein kinase II subunit alpha' (Homo sapiens) (UniProt P19784). The assay can be described thus: CK2alpha2(h) Eurofins kinase panel. The note with it: Compound concentration 1.0 uM.
Chain of Casein kinase II subunit alpha' (Homo sapiens) (P19784 whole entry, looked up): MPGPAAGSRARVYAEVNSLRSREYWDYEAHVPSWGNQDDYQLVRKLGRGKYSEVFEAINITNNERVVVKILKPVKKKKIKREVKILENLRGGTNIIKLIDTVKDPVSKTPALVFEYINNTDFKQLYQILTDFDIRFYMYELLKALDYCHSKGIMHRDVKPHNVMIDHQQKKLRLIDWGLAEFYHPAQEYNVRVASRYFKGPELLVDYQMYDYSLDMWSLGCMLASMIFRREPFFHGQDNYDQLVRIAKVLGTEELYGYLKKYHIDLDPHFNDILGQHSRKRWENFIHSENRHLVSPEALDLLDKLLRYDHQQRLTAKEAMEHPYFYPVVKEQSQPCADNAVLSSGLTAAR
For assay [4], the target named is Macrophage colony-stimulating factor 1 receptor (Homo sapiens) (UniProt P07333). As to the kind of experiment: Fms(h) Eurofins kinase panel. The note with it: Compound concentration 1.0 uM.
Chain of Macrophage colony-stimulating factor 1 receptor (Homo sapiens) (P07333 whole entry): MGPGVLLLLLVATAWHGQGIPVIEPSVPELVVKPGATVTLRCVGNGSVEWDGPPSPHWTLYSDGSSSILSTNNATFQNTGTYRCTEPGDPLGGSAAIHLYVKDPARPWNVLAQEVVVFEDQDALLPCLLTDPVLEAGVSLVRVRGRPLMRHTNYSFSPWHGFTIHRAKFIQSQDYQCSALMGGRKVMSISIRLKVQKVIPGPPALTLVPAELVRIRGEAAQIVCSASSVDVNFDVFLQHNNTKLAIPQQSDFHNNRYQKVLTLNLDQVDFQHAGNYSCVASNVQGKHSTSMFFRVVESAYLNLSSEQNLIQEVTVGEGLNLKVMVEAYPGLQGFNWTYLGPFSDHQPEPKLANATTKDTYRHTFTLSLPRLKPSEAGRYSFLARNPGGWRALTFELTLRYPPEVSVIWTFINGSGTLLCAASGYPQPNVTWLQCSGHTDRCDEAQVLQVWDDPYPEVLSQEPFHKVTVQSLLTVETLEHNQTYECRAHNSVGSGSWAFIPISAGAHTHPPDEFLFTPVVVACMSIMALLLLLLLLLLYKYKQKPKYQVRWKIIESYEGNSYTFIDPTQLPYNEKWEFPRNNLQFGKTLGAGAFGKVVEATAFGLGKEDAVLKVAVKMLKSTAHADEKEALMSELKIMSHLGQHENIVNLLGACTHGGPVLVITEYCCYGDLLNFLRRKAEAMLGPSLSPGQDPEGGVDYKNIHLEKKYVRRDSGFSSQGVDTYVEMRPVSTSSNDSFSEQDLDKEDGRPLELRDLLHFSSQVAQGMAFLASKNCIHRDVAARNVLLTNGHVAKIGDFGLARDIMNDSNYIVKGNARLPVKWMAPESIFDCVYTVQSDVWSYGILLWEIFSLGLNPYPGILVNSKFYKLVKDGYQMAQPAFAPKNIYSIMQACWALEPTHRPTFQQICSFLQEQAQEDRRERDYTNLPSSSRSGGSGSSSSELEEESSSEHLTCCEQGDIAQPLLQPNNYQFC
Assay [5] addresses Tyrosine-protein kinase Lyn (Homo sapiens) (UniProt P07948). The assay can be described thus: Lyn(h) Eurofins kinase panel. The note with it: Compound concentration 1.0 uM.
Assay [6] concerns the target Serine/threonine-protein kinase pim-2 (Homo sapiens) (UniProt Q9P1W9). The assay can be described thus: Pim-2(h) Eurofins kinase panel. The note with it: Compound concentration 1.0 uM.
Assay [7] deals with Protein kinase C beta type (Homo sapiens) (UniProt P05771). The assay can be described thus: PKCbetaII (h) Eurofins kinase panel. The following applies: Compound concentration 1.0 uM.
Chain of Protein kinase C beta type (Homo sapiens) (P05771 2-671 limits assumed): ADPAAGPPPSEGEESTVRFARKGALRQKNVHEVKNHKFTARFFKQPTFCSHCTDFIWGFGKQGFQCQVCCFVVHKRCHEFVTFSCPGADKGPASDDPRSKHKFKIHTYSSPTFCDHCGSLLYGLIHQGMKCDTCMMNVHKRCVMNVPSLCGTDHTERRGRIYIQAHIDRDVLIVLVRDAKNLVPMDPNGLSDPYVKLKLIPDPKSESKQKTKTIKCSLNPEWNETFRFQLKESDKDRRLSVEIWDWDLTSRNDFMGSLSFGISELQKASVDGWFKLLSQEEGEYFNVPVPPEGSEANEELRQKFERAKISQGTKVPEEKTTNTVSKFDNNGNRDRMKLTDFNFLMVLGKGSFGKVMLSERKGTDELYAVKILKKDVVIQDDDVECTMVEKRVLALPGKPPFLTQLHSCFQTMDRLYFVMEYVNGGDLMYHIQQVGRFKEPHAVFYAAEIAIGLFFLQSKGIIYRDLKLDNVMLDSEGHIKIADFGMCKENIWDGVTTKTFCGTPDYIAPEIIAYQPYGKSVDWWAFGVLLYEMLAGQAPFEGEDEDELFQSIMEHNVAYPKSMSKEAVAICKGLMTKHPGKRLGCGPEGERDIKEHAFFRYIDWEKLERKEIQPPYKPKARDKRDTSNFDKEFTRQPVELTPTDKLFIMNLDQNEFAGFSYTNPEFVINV
Assay [8] addresses Macrophage-stimulating protein receptor (Homo sapiens) (UniProt Q04912). As to the kind of experiment: Ron(h) Eurofins kinase panel. The note with it: Compound concentration 1.0 uM.
Assay [9] deals with Mitogen-activated protein kinase 11 (Homo sapiens) (UniProt Q15759). The assay can be described thus: SAPK2b(h) Eurofins kinase panel. The note with it: Compound concentration 1.0 uM.
Assay [10] deals with T1, Serine/threonine-protein kinase ULK2 (Homo sapiens) (UniProt Q8IYT8).
T1 sequence (whole entry): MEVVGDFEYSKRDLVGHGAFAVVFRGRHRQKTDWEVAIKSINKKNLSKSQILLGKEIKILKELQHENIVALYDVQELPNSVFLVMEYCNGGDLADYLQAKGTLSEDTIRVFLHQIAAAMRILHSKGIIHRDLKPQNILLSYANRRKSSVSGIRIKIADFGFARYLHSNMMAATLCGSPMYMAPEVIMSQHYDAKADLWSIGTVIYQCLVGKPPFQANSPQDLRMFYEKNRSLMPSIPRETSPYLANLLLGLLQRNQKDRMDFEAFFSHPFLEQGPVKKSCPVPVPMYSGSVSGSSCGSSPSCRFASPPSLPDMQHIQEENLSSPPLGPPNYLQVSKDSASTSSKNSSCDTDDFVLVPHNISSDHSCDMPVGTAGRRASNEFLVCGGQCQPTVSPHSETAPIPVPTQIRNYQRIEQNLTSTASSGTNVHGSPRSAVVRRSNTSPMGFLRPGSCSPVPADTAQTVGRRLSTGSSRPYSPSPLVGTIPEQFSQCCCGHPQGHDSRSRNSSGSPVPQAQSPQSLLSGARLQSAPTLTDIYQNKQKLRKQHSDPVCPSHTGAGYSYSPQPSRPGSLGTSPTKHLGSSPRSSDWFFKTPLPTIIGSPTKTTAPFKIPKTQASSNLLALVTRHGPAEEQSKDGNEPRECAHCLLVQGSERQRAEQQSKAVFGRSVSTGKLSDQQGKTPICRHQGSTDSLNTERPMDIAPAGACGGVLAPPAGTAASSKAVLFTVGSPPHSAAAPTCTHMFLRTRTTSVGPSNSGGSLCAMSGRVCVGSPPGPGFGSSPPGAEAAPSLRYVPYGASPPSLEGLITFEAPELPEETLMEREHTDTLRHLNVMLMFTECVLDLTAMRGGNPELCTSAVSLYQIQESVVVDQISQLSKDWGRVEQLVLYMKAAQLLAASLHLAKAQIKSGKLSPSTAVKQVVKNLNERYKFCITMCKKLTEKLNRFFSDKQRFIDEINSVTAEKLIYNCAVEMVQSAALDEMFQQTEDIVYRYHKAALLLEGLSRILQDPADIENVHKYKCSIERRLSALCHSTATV
The assay can be described thus: ULK2(h) Eurofins kinase panel. The following applies: Compound concentration 1.0 uM.

Another assay concerns L-363. As to the kind of experiment: L-363 cell line Proliferation assay. The assay is classed as functional, Homo sapiens. The note with it: time 3 day.
Another assay deals with SNU-398. The assay can be described thus: Snu398 cell line Proliferation assay. The assay is classed as functional, Homo sapiens. The note with it: time 3 day.
The next assay deals with NCI-H460. As to the kind of experiment: NCI- H460 cell line Proliferation assay. The following applies: time 3 day. It is filed as functional, Homo sapiens.
Assay [11] has as its target 5'-AMP-activated protein kinase catalytic subunit alpha-2 (Homo sapiens, UniProt P54646).

Each structure is given as a SMILES string.

Chain of Macrophage-stimulating protein receptor (Homo sapiens) (Q04912 25-304 limits assumed): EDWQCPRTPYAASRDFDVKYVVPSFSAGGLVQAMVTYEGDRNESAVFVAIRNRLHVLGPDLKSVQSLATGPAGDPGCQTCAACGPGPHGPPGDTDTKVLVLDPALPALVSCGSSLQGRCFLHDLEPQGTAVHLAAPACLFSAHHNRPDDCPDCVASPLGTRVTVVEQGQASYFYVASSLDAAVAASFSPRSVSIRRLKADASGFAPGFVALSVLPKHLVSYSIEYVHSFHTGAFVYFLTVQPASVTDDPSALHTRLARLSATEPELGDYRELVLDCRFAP
Chain of Macrophage-stimulating protein receptor (Homo sapiens) (Q04912 310-1400 limits assumed): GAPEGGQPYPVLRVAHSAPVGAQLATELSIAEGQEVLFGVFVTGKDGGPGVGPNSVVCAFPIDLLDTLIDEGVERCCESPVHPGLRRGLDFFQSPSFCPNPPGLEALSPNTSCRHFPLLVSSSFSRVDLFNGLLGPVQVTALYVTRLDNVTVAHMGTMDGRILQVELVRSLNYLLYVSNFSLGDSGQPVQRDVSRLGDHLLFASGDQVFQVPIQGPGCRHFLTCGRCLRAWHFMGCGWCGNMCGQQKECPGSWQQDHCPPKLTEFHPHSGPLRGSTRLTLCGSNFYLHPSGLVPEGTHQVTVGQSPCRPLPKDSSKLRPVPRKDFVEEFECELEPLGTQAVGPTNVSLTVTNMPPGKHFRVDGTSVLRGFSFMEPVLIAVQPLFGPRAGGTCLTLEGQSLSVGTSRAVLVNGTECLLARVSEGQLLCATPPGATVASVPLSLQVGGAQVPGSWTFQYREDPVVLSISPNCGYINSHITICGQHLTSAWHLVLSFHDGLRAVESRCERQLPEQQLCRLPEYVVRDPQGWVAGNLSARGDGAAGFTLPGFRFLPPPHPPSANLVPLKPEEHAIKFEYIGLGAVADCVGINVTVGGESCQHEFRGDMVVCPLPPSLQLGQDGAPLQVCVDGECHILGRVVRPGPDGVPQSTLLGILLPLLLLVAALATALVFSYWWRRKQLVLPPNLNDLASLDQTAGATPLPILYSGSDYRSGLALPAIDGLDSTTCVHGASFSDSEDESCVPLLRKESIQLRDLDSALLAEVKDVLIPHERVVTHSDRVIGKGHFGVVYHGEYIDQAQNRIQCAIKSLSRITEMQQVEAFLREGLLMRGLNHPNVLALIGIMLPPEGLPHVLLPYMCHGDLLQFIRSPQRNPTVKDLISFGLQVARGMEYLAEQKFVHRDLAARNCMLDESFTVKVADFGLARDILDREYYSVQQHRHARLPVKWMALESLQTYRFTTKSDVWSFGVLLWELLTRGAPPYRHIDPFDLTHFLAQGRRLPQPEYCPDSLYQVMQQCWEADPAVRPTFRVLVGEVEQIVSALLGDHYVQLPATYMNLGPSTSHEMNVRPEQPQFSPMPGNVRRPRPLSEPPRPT
Chain of Serine/threonine-protein kinase pim-2 (Homo sapiens) (Q9P1W9 whole entry, looked up): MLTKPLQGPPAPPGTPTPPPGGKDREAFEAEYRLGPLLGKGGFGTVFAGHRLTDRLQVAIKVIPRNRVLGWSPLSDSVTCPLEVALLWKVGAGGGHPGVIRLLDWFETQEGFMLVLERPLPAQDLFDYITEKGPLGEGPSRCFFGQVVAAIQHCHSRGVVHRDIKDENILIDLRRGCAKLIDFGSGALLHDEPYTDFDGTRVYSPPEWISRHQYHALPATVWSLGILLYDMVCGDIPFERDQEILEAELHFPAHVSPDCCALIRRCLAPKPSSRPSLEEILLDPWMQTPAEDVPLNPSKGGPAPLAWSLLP
Chain of Tyrosine-protein kinase Lyn (Homo sapiens) (P07948 2-512 limits assumed): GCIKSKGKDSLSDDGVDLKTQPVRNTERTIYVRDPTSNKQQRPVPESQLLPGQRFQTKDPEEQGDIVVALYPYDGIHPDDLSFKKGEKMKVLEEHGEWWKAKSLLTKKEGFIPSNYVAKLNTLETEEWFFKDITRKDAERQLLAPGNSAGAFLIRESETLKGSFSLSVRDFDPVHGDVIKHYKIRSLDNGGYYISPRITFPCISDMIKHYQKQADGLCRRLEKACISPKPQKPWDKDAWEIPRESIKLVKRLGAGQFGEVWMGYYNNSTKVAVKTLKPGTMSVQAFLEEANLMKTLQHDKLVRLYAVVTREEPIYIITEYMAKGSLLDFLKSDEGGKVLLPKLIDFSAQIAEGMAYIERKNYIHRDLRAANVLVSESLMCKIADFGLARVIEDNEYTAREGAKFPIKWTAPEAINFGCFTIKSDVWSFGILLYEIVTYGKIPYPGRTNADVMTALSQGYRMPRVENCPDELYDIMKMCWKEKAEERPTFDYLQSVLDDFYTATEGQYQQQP

The IC50 is the concentration needed to halve the response being measured. In the case of `CCc1ccccc1C(=O)Nc1n[nH]c2c(C)c(F)c(C3C(C#N)=C(C)N(C)C(C)=C3C#N)cc12` [BAY-3827], the % residual kinase activity in assay [1] is 92%; in [2], 99%; in assay [3], 109%; in [4], 99%; in assay [5], 110%; in assay [6], 102%. Moreover, the % residual kinase activity was 42% in assay [7], 102% in [8], 110% in assay [9] and 84% in [10]. Besides, the “Cell Proliferation IC50” value in the assay on L-363 was 10.8 µM; with SNU-398 it was 7.3 µM; in the assay on NCI-H460 it was above 33 µM. The molecule also had a 50% inhibitory concentration (IC50) in [11] of 0.007 µM.
